# Read-outs that look alike come from different tables or passages of the source.
# What was measured:
# [1] = tested on: H1299 (non-small cell lung carcinoma); assay: In vitro antiproliferation assay, H1299 cells (TABLE 1 6 point assay; TABLE 2); type: cell-based
# Procedure: (§1) Certain compounds were tested against other cell types for their ability to inhibit proliferation in standard antiproliferation assays.
# [2] = tested on: A549 (lung carcinoma); assay: In vitro antiproliferation assay, A549 cells (TABLE 1 6 point assay; TABLE 2); type: cell-based
# Procedure: as §1
# [3] = Homo sapiens, NCI-H1299, H1299 cells, 6 point assay, read-out: H1299, 6pt (IC50, inhibition of proliferation)
# [4] = Homo sapiens, A549, A549 cells, 6 point assay, read-out: A549, 6pt (IC50, inhibition of proliferation)
Structure (SMILES),"IC50 [1, 3] [nM]","IC50 [2, 4] [nM]",other results
"Cc1cc(Nc2ncc(F)c(NC3C4C=CC(C4)C3C(N)=O)n2)ccc1N1CCCC1 (racemic) [Compound 288, Racemic-(2-exo,3-exo)-N4-(3-aminocarbonylbicyclo[2.2.1]hept-5-en-2-yl)-5-fluoro-N2-[3-methyl-4-(pyrrolidino)phenyl]-2,4-pyrimidinediamine]",–,–,"IC50 ([1]; Homo sapiens, NCI-H1299, 6 point assay, H1299 cells, read-out: IC50, H1299 cells): 100 to 1000 nM; IC50 ([2]; Homo sapiens, A549, 6 point assay, A549 cells, read-out: IC50, A549 cells): 100 to 1000 nM"
"Cc1ccc(Nc2ncc(F)c(N[C@H]3CCC[C@H]3C(N)=O)n2)cc1OCC(=O)N1CCN(C)CC1 (racemic) [compound 102, Racemic-cis-N4-(2-aminocarbonylcyclopent-1-yl)-5-fluoro-N2-[4-methyl-3-(4-methylpiperazin-1-yl)carbonylmethyleneoxyphenyl]-2,4-pyrimidinediamine]",1000 to 10000,1000 to 10000,–
"Cc1ccc(Nc2ncc(F)c(NC3C4C=CC(C4)C3C(N)=O)n2)cc1OCC(=O)N1CCOCC1 (racemic) [compound 103, Racemic-(2-exo, 3-exo)-N4-(3-aminocarbonylbicyclo[2.2.1]hept-5-en-2-yl)-5-fluoro-N2-[4-methyl-3-(N-morpholinyl)carbonylmethyleneoxyphenyl]-2,4-pyrimidinediamine]",≤ 100,100 to 1000,–
"Cc1ccc(Nc2ncc(F)c(NC3C4C=CC(C4)C3C(N)=O)n2)cc1OCCN1CCOCC1 (racemic) [compound 104, Racemic-(2-exo, 3-exo)-N4-(3-aminocarbonylbicyclo[2.2.1]hept-5-en-2-yl)-5-fluoro-N2-[4-methyl-3-(N-morpholinyl)-2-ethyleneoxyphenyl]-2,4-pyrimidinediamine]",≤ 100,≤ 100,–
"CNC(=O)COc1cc(Nc2ncc(F)c(N[C@H]3CCC[C@H]3C(N)=O)n2)ccc1C (racemic) [compound 106, Racemic-cis-N4-(2-aminocarbonylcyclopent-1-yl)-5-fluoro-N2-[4-methyl-3-(N-methylamino)carbonylmethyleneoxyphenyl]-2,4-pyrimidinediamine]",1000 to 10000,1000 to 10000,–
"Cc1cc(Nc2ncc(F)c(N[C@H]3CCC[C@H]3C(N)=O)n2)ccc1N1CCNCC1 (racemic) [compound 107, Racemic-cis-N4-(2-amino-carbonylcyclopent-1-yl)-5-fluoro-N2-[3-methyl-4-(piperazin-1-yl)phenyl]-2,4-pyrimidinediamine]",1000 to 10000,1000 to 10000,–
Cc1cc(Nc2ncc(F)c(NC3C4C=CC(C4)C3C(N)=O)n2)ccc1N1CCNCC1 (racemic) [compound 108],1000 to 10000,> 10000,–
Cc1cc(Nc2ncc(F)c(NC3C4C=CC(C4)C3C(N)=O)n2)ccc1N1CCN(CCO)CC1 (racemic) [compound 111],≤ 100,≤ 100,–
"CN1CCN(C(=O)c2cc3cc(Nc4ncc(F)c(N[C@H]5CCC[C@H]5C(N)=O)n4)ccc3o2)CC1 (racemic) [compound 130, Racemic-cis-N4-(2-aminocarbonylcyclopent-1-yl)-5-fluoro-N2-[2-(4-methylpiperazin-1-ylcarbonyl)benzofuran-5-yl]-2,4-pyrimidinediamine]",1000 to 10000,1000 to 10000,–
"CN1CCN(Cc2cc3cc(Nc4ncc(F)c(N[C@H]5CCC[C@H]5C(N)=O)n4)ccc3o2)CC1 (racemic) [compound 131, Racemic-cis-N4-(2-aminocarbonylcyclopent-1-yl)-5-fluoro-N2-[2-(4-methylpiperazin-1-ylmethylene)benzofuran-5-yl]-2,4-pyrimidinediamine]",1000 to 10000,1000 to 10000,–
"COC(=O)CN1CCc2ccc(Nc3ncc(F)c(N[C@H]4CCC[C@H]4C(N)=O)n3)cc2C1 (racemic) [compound 132, Racemic-cis-N4-(2-aminocarbonylcyclopent-1-yl)-5-fluoro-N2-[2-(methoxycarbonylmethylene)-1,2,3,4-tetrahydroisoquin-7-yl]-2,4-pyrimidinediamine]",100 to 1000,100 to 1000,–
"COc1cc(Nc2ncc(F)c(NC3C4C=CC(C4)C3C(N)=O)n2)ccc1S(N)(=O)=O (racemic) [compound 133, Racemic-(2-exo,3-exo)-N4-(3-aminocarbonylbicyclo[2.2.1]hept-5-en-2-yl)-N2-(4-aminosulfonyl-3-methoxyphenyl)-5-fluoro-2,4-pyrimidinediamine]",1000 to 10000,1000 to 10000,–
"CN1CCN(CCn2ccc3cc(Nc4ncc(F)c(NC5C6C=CC(C6)C5C(N)=O)n4)ccc32)CC1 (racemic) [compound 134, Racemic-(2-exo,3-exo)-N4-(3-aminocarbonylbicyclo[2.2.1]hept-5-en-2-yl)-5-fluoro-N2-{1-[2-(4-methylpiperazin-1-yl)ethyl]indol-5-yl}-2,4-pyrimidinediamine]",100 to 1000,100 to 1000,–
"Cc1cc(Nc2ncc(F)c(NC3C4C=CC(C4)C3C(=O)OC3C[C@@H](C)CC[C@@H]3C(C)C)n2)ccc1N1CCN(C)CC1 (mixture of isomers) [compound 135, Racemic (2-exo,3-exo)-5-Fluoro-N4-[3-(1R,2S,5R)-(−)-menthyloxycarbonylbicyclo[2.2.1]hept-5-en-2-yl]-N2-[3-methyl-4-(4-methylpiperazin-1-yl)phenyl]-2,4-pyrimidinediamine]",1000 to 10000,1000 to 10000,–
"Cc1cc(Nc2ncc(F)c(N[C@H]3[C@@H](C(N)=O)[C@@H]4C=C[C@H]3C4)n2)ccc1OC1CCCN(C)C1 (mixture of isomers) [compound 147, (1R,2R,3S,4S)-N4-(3-Aminocarbonylbicyclo[2.2.1]hept-5-en-2-yl)-5-fluoro-N2-[3-methyl-4-(1-methylpiperidin-3(±)-yloxy)phenyl]-2,4-pyrimidinediamine]",–,–,"IC50 ([1]; H1299 cells, 6 point assay, read-out: H1299, 6pt (IC50, inhibition of proliferation)): ≤ 100 nM; IC50 ([2]; A549 cells, 6 point assay, read-out: A549, 6pt (IC50, inhibition of proliferation)): ≤ 100 nM"
"NC(=O)[C@@H]1CCC[C@@H]1Nc1nc(Nc2ccc3c(c2)NCC3)ncc1F (racemic) [compound 156, Racemic-cis-N4-(2-aminocarbonylcyclopent-1-yl)-N2-(2,3-dihydroindol-6-yl)-5-fluoro-2,4-pyrimidinediamine]",1000 to 10000,1000 to 10000,–
"NC(=O)[C@@H]1CCC[C@@H]1Nc1nc(Nc2ccc3c(c2)CCN3)ncc1F (racemic) [compound 157, Racemic-cis-N4-(2-aminocarbonylcyclopent-1-yl)-N2-(2,3-dihydroindol-5-yl)-5-fluoro-2,4-pyrimidinediamine]",1000 to 10000,1000 to 10000,–
"Cc1cc(Nc2ncc(F)c(N[C@H]3CCC[C@H]3C(=O)NCC3CC3)n2)ccc1N1CCN(C)CC1 (racemic) [compound 158, Racemic-cis-N4-[2-(N-cyclopropylmethyl)aminocarbonylcyclopent-1-yl]-5-fluoro-N2-[4-(4-methylpiperazin-1-yl)-3-methylphenyl]-2,4-pyrimidinediamine]",1000 to 10000,100 to 1000,–
"Cc1cc(Nc2ncc(F)c(N[C@H]3CCC[C@H]3C(=O)NC3CC3)n2)ccc1N1CCN(C)CC1 (racemic) [compound 159, Racemic-cis-N4-[2-(N-cyclpropyl)aminocarbonylcyclopent-1-yl]-5-fluoro-N2-[4-(4-methylpiperazin-1-yl)-3-methylphenyl]-2,4-pyrimidinediamine]",100 to 1000,100 to 1000,–
"CN(C)CCN1CCc2cc(Nc3ncc(F)c(N[C@@H]4[C@H](C(N)=O)[C@H]5C=C[C@@H]4C5)n3)ccc21 (racemic) [compound 160, Racemic-(2-exo,3-exo)-N4-[3-aminocarbonylbicyclo[2.2.1]hept-5-en-2-yl)-N2-[1-(2-dimethylaminoethyl)-2,3-dihydroindol-5-yl]-5-fluoro-2,4-pyrimidinediamine]",≤ 100,100 to 1000,–
"Cn1ccc2cc(Nc3ncc(F)c(NC4C5C=CC(C5)C4C(N)=O)n3)ccc21 (racemic) [compound 161, Racemic-(2-exo,3-exo)-N4-[3-aminocarbonylbicyclo[2.2.1]hept-5-ene-2-yl)-5-fluoro-N2-(1-methylindol-5-yl)-2,4-pyrimidinediamine]",100 to 1000,100 to 1000,–
Cc1cc(Nc2ncc(F)c(NC3C4C=CC(C4)C3C(=O)NC(C)C)n2)ccc1N1CCN(C)CC1 (racemic) [compound 162],≤ 100,≤ 100,–
"CN(C)CCn1ccc2ccc(Nc3ncc(F)c(NC4C5C=CC(C5)C4C(N)=O)n3)cc21 (racemic) [compound 163, Racemic-(2-exo,3-exo)-N4-[3-aminocarbonylbicyclo[2.2.1]hept-5-en-2-yl)-N2-[1-(2-dimethylaminoethyl)indol-6-yl]-5-fluoro-2,4-pyrimidinediamine]",100 to 1000,100 to 1000,–
"Cc1cc(Nc2ncc(F)c(NC3C4C=CC(C4)C3C(=O)NC3CC3)n2)ccc1N1CCN(C)CC1 (racemic) [compound 164, Racemic-(2-exo,3-exo)-N4-[3-(N-cyclopropyl)aminocarbonylbicyclo[2.2.1]hept-5-en-2-yl)-5-fluoro-N2-[3-methyl-4-(4-methylpiperazin-1-yl)phenyl]-2,4-pyrimidinediamine]",≤ 100,≤ 100,–
"Cc1cc(Nc2ncc(F)c(NC3C4C=CC(C4)C3C(=O)NC3CCC3)n2)ccc1N1CCN(C)CC1 (racemic) [compound 165, Racemic-(2-exo,3-exo)-N4-[3-(N-cyclobutyl)aminocarbonylbicyclo[2.2.1]hept-5-en-2-yl]-5-fluoro-N2-[3-methyl-4-(4-methylpiperazin-1-yl)phenyl]-2,4-pyrimidinediamine]",≤ 100,≤ 100,–

# Source: patent US7868013B2, “Cycloalkyl substituted pyrimidinediamine compounds and their uses” (Rigel Pharmaceuticals, Inc., priority 2004, dated 2011)
